Measurements reported in patent US20220233743A1, “WOUND CLOSURE ENHANCEMENT METHODS AND MATERIALS VIA MANIPULATION OR AUGMENTATION OF LIPIN-1” (Board of Supervisors of Louisiana State University and …, priority 2019, published 2022).

Test system: BMDMs
Assay: OCR in response to AC with and without etomoxir, Seahorse
Format: cell-based, mouse
Details: for OCR in response to AC with pretreatment of etomoxir: 40 μM etomoxir 15 min, then AC 4:1
Experimental: Thymocytes (Jurkats) were subjected to UV light for 20 min in a 10-cm dish in sterile PBS. Cells were collected, and media was changed to D10 media followed by a 2-h incubation at 37° C. to allow for cells to become apoptotic. Cells were collected and centrifuged at 400×g for 5 min. Cells were resuspended in 2×10^−6 M PKH26 for 3 min. Staining was stopped by adding equivalent volumes of FBS.
BMDMs collected from lipin-1^mEnzyKO, lipin-1^mKO, and littermate control mice were seeded at a density of 150,000 cells per well on XF24 cell culture microplates and allowed to incubate for 4 h. Experiments were conducted in XF assay medium containing 25 mM glucose, 2 mM 1-glutamine, and 1 mM sodium pyruvate and analyzed using a Seahorse XFe 24 extracellular flux analyzer (Agilent Technologies). Where indicated, the following were injected: ATP-synthesis inhibitor oligomycin (Oligo; 1 μM), carbonyl cyanide 4-(trifluoromethoxy)phenylhydrazone (FCCP) (2 μM) to uncouple ATP synthesis, rotenone (100 nM) to block complex I, and antimycin A (1 μM) (Sigma-Aldrich) to block complex III. Oxygen consumption rate (OCR) was analyzed using Wave Desktop software (Agilent Technologies).
The inventors have shown that lipin-1 is required for increased OCR in response to free fatty acids, but the inventors wanted to know if lipin-1 regulates β-oxidation in response to AC during efferocytosis. BMDMs from WT, lipin-1^mEnzyKO, and lipin-1^mKO mice were either pretreated with or without etomoxir to prevent fatty acid transport into the mitochondria followed by the addition of AC to the macrophages at an AC/BMDM ratio of 4:1. AC were incubated with BMDMs for 30 min prior to the start of Seahorse analysis. […] Etomoxir treatment of unstimulated (no AC) WT, lipin-1 EKO, and lipin-1 KO macrophages allowed the inventors to determine basal lipid use.

## CCOC(=O)[C@@]1(CCCCCCOc2ccc(Cl)cc2)CO1 [etomoxir]
WT macrophages
  OCR in response to AC with pretreatment of etomoxir: significant reduction
lipin-1 EKO macrophages
  OCR in response to AC with pretreatment of etomoxir: significant reduction
lipin-1 KO macrophages
  OCR in response to AC with pretreatment of etomoxir: no significant difference in OCR
Unstimulated (no AC) WT macrophages
  OCR with etomoxir alone (basal lipid use): significant reduction in OCR
Unstimulated (no AC) lipin-1 EKO macrophages
  OCR with etomoxir alone (basal lipid use): significant reduction in OCR
Unstimulated (no AC) lipin-1 KO macrophages
  OCR with etomoxir alone (basal lipid use): significant reduction in OCR
